Test results: ChEMBL document CHEMBL1201862, “PubChem BioAssay data set” (2004)
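Grown in 96-well plates, cells were treated for 48 hours with each compound at five concentrations. Insufficient inhibition: endpoint recorded as highest concentration tested. GI50 is the concentration that inhibits growth by half.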 The source made the active and inactive calls. Rule as the data show it: active = GI50 up to about 1.1 µM and inactive = higher.

Columns and labels:
Assay in all cases: NCI-60 cell line screen, 48 h
786-0 = system: 786-0
CAKI-1 = system: CAKI-1
COLO 205 = system: COLO 205
DU-145 = system: DU-145
HCT-15 = system: HCT-15
HL-60 = system: HL-60
HOP-62 = system: HOP-62
HOP-92 = system: HOP-92
Hs-578T = system: Hs-578T
K562 = system: K562
LOX IMVI = system: LOX IMVI
Malme-3M = system: Malme-3M
NCI-H226 = system: NCI-H226
NCI-H460 = system: NCI-H460
SF-295 = system: SF-295
SK-MEL-2 = system: SK-MEL-2
SNB-75 = system: SNB-75
SW-620 = system: SW-620
UACC-62 = system: UACC-62
UO-31 = system: UO-31

Compound	GI50 (786-0)	GI50 (CAKI-1)	GI50 (COLO 205)	GI50 (DU-145)	GI50 (HCT-15) [µM]	GI50 (HL-60)	GI50 (HOP-62)	GI50 (HOP-92)	GI50 (Hs-578T)	GI50 (K562)	GI50 (LOX IMVI)	GI50 (Malme-3M)	GI50 (NCI-H226)	GI50 (NCI-H460)	GI50 (SF-295)	GI50 (SK-MEL-2)	GI50 (SNB-75)	GI50 (SW-620)	GI50 (UACC-62)	GI50 (UO-31)
O=[N+]([O-])c1ccc(C[S+]([O-])Cc2ccccc2)cc1 (stereo not given)	> 100 µM (inactive)	> 100 µM (inactive)	> 100 µM (inactive)	> 100 µM (inactive)	> 100	> 100 µM (inactive)	> 100 µM (inactive)	> 100 µM (inactive)	> 100 µM (inactive)	> 100 µM (inactive)	> 100 µM (inactive)	> 100 µM (inactive)	> 100 µM (inactive)	> 100 µM (inactive)	> 100 µM (inactive)	> 100 µM (inactive)	39.9 µM (inactive)	> 100 µM (inactive)	> 100 µM (inactive)	> 100 µM (inactive)
CC(C)NC(=O)OCc1c(COC(=O)NC(C)C)c(-c2ccc[n+](COC(=O)C3CC3)c2)n2c1CCC2	27 µM (inactive)	20.1 µM (inactive)	70.5 µM (inactive)	37.6 µM (inactive)	87.3	29.6 µM (inactive)	49.1 µM (inactive)	40.8 µM (inactive)	79.3 µM (inactive)	32.6 µM (inactive)	38.8 µM (inactive)	> 100 µM (inactive)	> 100 µM (inactive)	24.2 µM (inactive)	45.9 µM (inactive)	57.1 µM (inactive)	70.6 µM (inactive)	> 100 µM (inactive)	27.6 µM (inactive)	41.2 µM (inactive)
OC(C/C(=N\N1CCCCC1)c1cccs1)(C(F)(F)F)C(F)(F)F	> 10 µM (inactive)	> 10 µM (inactive)	> 10 µM (inactive)	> 10 µM (inactive)	> 10	> 10 µM (inactive)	> 10 µM (inactive)	> 10 µM (inactive)	> 10 µM (inactive)	> 10 µM (inactive)	> 10 µM (inactive)	> 10 µM (inactive)	> 10 µM (inactive)	> 10 µM (inactive)	> 10 µM (inactive)	> 10 µM (inactive)	> 10 µM (inactive)	> 10 µM (inactive)	> 10 µM (inactive)	> 10 µM (inactive)
O=C1CS/C(=N/N=C/c2cn(Cc3ccc(Cl)cc3Cl)c3ccccc23)N1	22.4 µM (inactive)	39.1 µM (inactive)	> 100 µM (inactive)	53.6 µM (inactive)	37.3	> 100 µM (inactive)	27.6 µM (inactive)	28.2 µM (inactive)	25.8 µM (inactive)	38.8 µM (inactive)	25.2 µM (inactive)	76.4 µM (inactive)	> 100 µM (inactive)	56.4 µM (inactive)	64.4 µM (inactive)	23.6 µM (inactive)	19.1 µM (inactive)	27.5 µM (inactive)	91.2 µM (inactive)	31.8 µM (inactive)
COc1ccc(-c2csc(-n3c(-c4ccccc4)nc4c(Br)cc(Br)cc4c3=O)n2)cc1	22.9 µM (inactive)	35.7 µM (inactive)	37 µM (inactive)	39.2 µM (inactive)	19.3	20.2 µM (inactive)	40.1 µM (inactive)	5.14 µM (inactive)	41 µM (inactive)	20.8 µM (inactive)	29.9 µM (inactive)	26 µM (inactive)	27.7 µM (inactive)	34.2 µM (inactive)	25.2 µM (inactive)	47.2 µM (inactive)	31.3 µM (inactive)	33.6 µM (inactive)	28.5 µM (inactive)	23.4 µM (inactive)
